What is called melting point is the temperature, or range, at which the solid turns liquid.

Molecules are shown by their SMILES. Bounds are passed on as bounds.

In turn, `COc1ccc(C(=O)Nc2c(Cl)cncc2Cl)c2c1oc1ccccc12` registered a melting point of 302 °C.

In the case of `COc1cc2c(cc1OC)C(Cc1ccncc1)(Cc1ccncc1)CN=C2c1ccccc1`, the melting point was 168 to 169 °C. Then `S=C=Nc1ccc(-c2nc(-c3cccnc3)no2)cc1`, with 121 to 123 °C; and `CC1c2onc(-c3ccc(Cl)cc3)c2CCC1(C)C(=O)O` (centres undefined), with 165 to 170 °C; and `COc1ccc(NC=O)cn1`, with 81 to 83 °C. In the case of `CC(C)C(CO)CS(N)(=O)=O` (centres undefined) it was 83 to 84 °C; in that of `CCOC(=O)c1c(C(C)C)nc(-c2ccccc2)c(C(C)C)c1-c1ccc(F)cc1`, 138 to 140 °C; in that of `C=Cc1cn(-c2ccccn2)c2c1C(=O)CC(C)(C)C2`, 150 to 154 °C. `COC(=O)Nc1ccccc1C=Cc1ccccc1Cl` displayed a melting point of 135 to 137 °C.

As for `COc1cccc2c3c(c(C)nc12)CCN3c1ccccc1C`, the melting point lay within 182 to 183 °C.

On to `CC(C)N(CCNc1ccc([N+](=O)[O-])c2ccccc12)C(C)C`, for which the melting point was 63 to 64 °C. Turning to `CC(C)(C)OC(=O)NCCNC(=O)c1ncccc1Br`, the melting point fell in the range of 125 to 130 °C. Then `CCCc1ccc(NCc2ccc(N(C)C)cc2)cc1`, with 74 to 76 °C; and `CCOC(=O)C(F)=C(C)NC(=O)Nc1cc(C(=O)OC(C)C)c(Cl)cc1F`, with 150 to 152 °C; and `CCOC(=O)Cc1nc2cc(Cl)ccc2n1CC`, with 44 to 45 °C. In the case of `COc1ccc(CCC(=O)CCC(Cc2ccc(OC)c(OC)c2)[N+](=O)[O-])cc1` (centres undefined) it was 87 to 89 °C; in that of `CN1CCC(c2nn(-c3cccc(C(F)(F)F)c3)c3ccccc23)CC1`, 103 to 105 °C. In the case of `CC(C)(C)OC(=O)c1n[nH]c2nc(N3CCNCC3)ccc12` it was 190 to 191 °C; in that of `CC(C)C[C@H](NC(=O)OCc1ccccc1)C(=O)NCCCNC(=O)[C@H](CC(C)C)NC(=O)OCc1ccccc1`, 177 to 178 °C.

On to `C=CCC(C(=O)O)c1ccc(C(=O)c2cccs2)cc1` (centres undefined), for which the melting point came to 117 °C.

For `C[C@@]12CCCN1[C@@H](C(Cl)(Cl)Cl)OC2=O`, the melting point was 55 to 57 °C. Then `Cc1cc2c(cc1F)NC(=O)C2`, with 168 to 171 °C.

`O=C1OC(=O)C2CC3=C(CC3)CC12` (centres undefined) had a melting point of 81 to 83 °C. Then `CCCOc1cc([N+](=O)[O-])ccc1N`, with 59 to 61 °C. Then `CCCCOCCOc1ccc(-c2ccc3c(c2)C=C(C(=O)OC)CCN3C(=O)CNC(C)=O)cc1`, with 130 to 134 °C; and `CC1(O)c2ccccc2CCC1OS(=O)(=O)CC12CCC(CC1=O)C2(C)C` (centres undefined), with 105 °C. In the case of `CC(C)(Cc1c(Sc2ccccc2)c2cc(F)ccc2n1Cc1ccc(Cl)cc1)C(=O)O` it was 162 to 163 °C; in that of `O=C(O)c1ccc(OCCCc2ccc(OCc3ccccc3)cc2)cc1`, 128 to 130 °C. `CCCCCCCCc1ccc(CCC(COC(C)=O)(COC(C)=O)NC(C)=O)cc1` yielded a melting point of 112 °C. In the case of `COC(=O)C(C)(C)OCC#Cc1cc(Cl)ccc1NS(=O)(=O)c1ccc(C(C)C)cc1` it was 65 to 67 °C. Then `O=C(O)c1nn(Cc2ccc(Cl)cc2Cl)c2c1Cc1cc(Cl)ccc1-2`, with > 260 °C. In the case of `CS(=O)(=O)Nc1ccc(C(=O)Nc2cn3cc(Cl)ccc3n2)cc1` it was 293 to 295 °C; in that of `COC(=O)C(Cc1ccc(-c2cccc(CNCC(=O)c3ccccc3)c2)cc1)Nc1ccccc1C(=O)c1ccccc1` (centres undefined), 75 °C; in that of `CN1[C@H]2CC[C@@H]1[C@H](C(=O)Oc1ccc(Cl)cc1)[C@@H](c1ccc(F)cc1)C2`, 64 to 66 °C. Compound `CCc1ncnc(O)c1Br` displayed a melting point of 175 to 177 °C. In turn, `CC(CCc1ccccc1)NCC(O)c1ccc(C(N)=O)s1` (centres undefined) had a melting point of 108 to 116 °C. In the case of `Cc1ccc(N2C(=O)C(O)=C(C(=O)c3ccc(C(C)C)cc3)C2c2ccc(-c3nnc(C)o3)cc2)nn1` (centres undefined) it was 293 °C. Then `COc1ccc(CC(=O)c2ccccc2)cc1`, with 87 to 92 °C; and `CCOC(=O)CN(CC1Nc2cc(Cl)c(S(N)(=O)=O)cc2S(=O)(=O)N1)C(=O)C(C)CSC(C)=O` (centres undefined), with 127 to 130 °C. `CCCCCCCCC(=O)Nc1ccc([N+](=O)[O-])cc1` registered a melting point of 76 to 76.5 °C.

In the case of `C=C1C(=O)Nc2ccc(C(F)(F)F)cc2CC1c1ccc(OC)cc1` (centres undefined), the melting point was in the range of 181 to 183 °C. In the case of `CN(C)C(=O)c1ccc(C(=O)Nc2cccc3cc(Br)cnc23)cc1` it was 196 to 198 °C; in that of `CCOc1cc(Cn2cc(CCC(=O)O)c(OCC)n2)ccc1OCc1nc(-c2ccccc2)oc1C`, 105 to 106 °C. For `COC(=O)c1nc(NC(=O)Nc2ccccc2)ccc1Oc1nc(OC)cc(OC)n1`, the melting point lay within 236 to 237 °C.

The compound `Cc1ccc(S(=O)(=O)O[C@H](C)C(=O)N2C(=O)N(C)C[C@H]2C(=O)OCc2ccccc2)cc1` had a melting point of 153 to 155 °C. `COC1C=C(Br)C(=O)CO1` (centres undefined) came in with a melting point of 74 to 75 °C.

In the case of `COC(=O)[C@@H](Cc1ccccc1)NC(=O)OCc1cc2cc(-c3ccsc3)ccc2o1`, the melting point is 105 to 106 °C. Then `O=c1oc2ccccc2n1CCCl`, with 77 to 79 °C; and `COC(=O)C1Cc2c([nH]c3ccccc23)C(c2cc(OC)ccc2OC)N1C(=O)CCl` (centres undefined), with 108 to 111 °C.

With `CCOC(=O)CNC(=O)c1ccc(CCC2CNc3nc(N)nc(O)c3C2)s1` (centres undefined), the melting point lay within 152 to 160 °C. In the case of `FC(F)(F)c1cccc(Nc2nc(Cl)nc3nc[nH]c23)c1`, the melting point was 248 to 250 °C. Then `O=C(c1ccc(Cl)cc1)c1c(N2C(=O)c3ccccc3C2=O)sc(-c2ccccc2)c1CBr`, with 160 to 161 °C; and `Brc1ccc2c3nc4ccccc4[nH]c-3nc2c1`, with > 300 °C. In the case of `CCc1ccc(Nc2nc3cc(NC(=O)c4ccccc4)ccc3o2)cc1` it was 239 to 240 °C; in that of `CCOC(=O)c1ccc2cc(I)ccc2n1`, 119 to 121 °C; in that of `N[C@@H](Cc1ccccc1)C(=O)NCC(=O)Nc1ccc([N+](=O)[O-])cc1C(=O)c1ccccc1`, 144 to 146 °C.

In turn, `Cc1csc(C(=O)OC(C)C)c1S(N)(=O)=O` showed a melting point of 76 °C. Consider `COc1ccccc1CC(=O)N1C[C@@H]2[C@H](F)CCC(c3ccccc3)(c3ccccc3)[C@@H]2C1`, for which the melting point came out at 205 °C. In the case of `COc1ccc(N2C(=O)C(=CN(C)C)c3ccccc32)cc1F` it was 113 to 114 °C; in that of `CCCn1cc(Cc2ccc(C(=O)NS(=O)(=O)c3ccccc3C)cc2OC)c2cc(CC3CCN(CC)C3=O)ccc21` (centres undefined), 107 to 115 °C.

As for `CC(=O)N1CCCC2=C1CC(c1ccccc1)c1cc(Cl)ccc12` (centres undefined), the melting point was 167 to 168 °C. In the case of `Cc1cccc(NC(=O)NC2CN(C(=O)C(C)(C)C)c3ccccc3N(CC(=O)OCc3ccccc3)C2=O)c1` (centres undefined) it was 136 to 140 °C; in that of `CCOC(=O)c1cn(-c2cccs2)c2c(F)c(F)c(F)c(C)c2c1=O`, 198 to 200 °C. In the case of `c1ccc(C(CC2=NCCN2)c2ccccc2)cc1` it was 173 to 175 °C; in that of `O=S(=O)(c1ccc(Cl)cc1)C(c1cc(F)ccc1F)C(O)CCCCO` (centres undefined), 105 to 107 °C; in that of `COC(=O)c1ccccc1-c1ccc(OC)cn1`, 130 to 132 °C. Turning to `Cc1csc(-c2nc(=O)c3ccccc3s2)n1`, the melting point lay within 210 to 211 °C. In the case of `Cc1ccc(C(=O)Nc2ccc(-n3ccnc3C)cc2C(F)(F)F)cc1Nc1nccc(-c2cccnc2)n1` it was 154 to 163 °C; in that of `O=C(Nc1nc(C(F)(F)F)c(Br)s1)c1ccc(Cl)c(Cl)c1`, 191 to 192 °C. Then `O=c1c(CO)cc(-c2ccc3c(c2)CCO3)nn1CC=Cc1ccc(Cl)cc1`, with 131 to 141 °C. Compound `CCCCOc1cc2ncnc(Nc3cccc(CC)c3)c2cc1OCCOC` gave a melting point of 90 to 92 °C.

`O=C(Nc1ccc(-c2ncc(-c3cccc(NC(=O)c4ccccn4)c3)[nH]2)cc1)c1ccccn1`: the melting point was in the range of 255 to 257 °C. Then `CC(C)c1ccc(N(Cc2ccc(N(C)C)nc2)C(=O)C2CCCc3c(O)cccc32)cc1` (centres undefined), with 187 °C; and `COc1ccc(Cn2cnc(N)c3nc(C(C)C)nc2-3)cc1OC1CCCC1`, with 190 to 193 °C; and `OC1(c2ccc(F)cc2)CCC2CN(Cc3ccccc3)CCC2C1` (centres undefined), with 120 to 122 °C.

Take `C=C1CCc2c(c3ccccc3n2C)C1=O`: the melting point was in the range of 127 to 129 °C. Then `CO/C=C(/C(=O)OC)c1ccccc1Oc1nc(Cl)nnc1Cl`, with 140 to 142 °C; and `CC(C)(CNc1ccc(C2=NNC(=O)CC2)cc1)[N+](=O)[O-]`, with 220 to 222 °C. Then `CCCCCCCCOc1c(OC)cc(N)c2ncccc12`, with 63 to 64 °C. In the case of `ClCc1c(Cl)c(Cl)c(Cl)c(CCl)c1Cl` it was 135 to 138 °C; in that of `Cc1c(-c2ccccc2)oc2c(C(=O)NCCCN3CCN(c4ccc(Cl)cc4)CC3)cccc2c1=O`, 200 to 204 °C. On to `O=C(O)Cn1cc(C(=O)O)c(=O)c2cc(O)ccc(=O)c21`, for which the melting point is > 250 °C. `FC(F)(F)c1cc(Cl)c(-n2nccc2Cl)c(Cl)c1` registered a melting point of 70 to 72 °C. `CO/C(=C\C=C\c1cc2cc(C(F)(F)F)ccc2[nH]1)C(=O)O`: the melting point was in the range of 191 to 193 °C. In the case of `CCN1C(=O)C(C)(C)C(=O)Nc2ccc(C=O)cc21` it was 188 to 191 °C; in that of `CCOC(=O)C(=C1NCCCN1OC)[N+](=O)[O-]`, 177 to 178 °C; in that of `S=C(Nc1ccccc1)c1ccccn1`, 45 to 46 °C. In the case of `COc1ccc(C(=O)Nc2nc(=O)c3cnn4c3n2CC=C4c2cccc(C(F)(F)F)c2)cc1`, the melting point lay in the range of 271 to 273 °C. Then `CCOC(=O)c1c2n(c3c(F)c(N4CCC(NC(=O)OC(C)(C)C)C4)c(F)cc3c1=O)C(C)S2` (centres undefined), with 174 to 176 °C.

The values are drawn from a melting point compilation (Tetko et al.; mined from patent text by program, amines drawn as free bases though some values may be those of a salt).
